Assay results reported in article PMC4856977, “Efficient enzymatic synthesis and dual-colour fluorescent labelling of DNA probes using long chain azido-dUTP and BCN dyes” (Nucleic Acids Research, 2016).

Assays:
[1] = target: T1, Therminator II (Thermococcus sp. 9oN-7, UniProt Q56366, D141A/E143A/Y409V/A485L, form not given); assay: primer extension, denaturing PAGE and mass spectrometry; format: biochemical; conditions: templates T1 and T2, primer P3; 72°C
T1 construct: gene pol; commercial engineered variant of 9°N DNA polymerase (New England Biolabs)

[2] = target: T2, Klenow large fragment (Escherichia coli, UniProt P00582); assay: as above; format: biochemical; conditions: templates T1 and T2, primer P3; 37°C
T2 construct: gene polA; large (Klenow) fragment of DNA polymerase I, without the N-terminal 5'-3' exonuclease domain; commercial (New England Biolabs)
T2 sequence (P00582 324-928 limits assumed): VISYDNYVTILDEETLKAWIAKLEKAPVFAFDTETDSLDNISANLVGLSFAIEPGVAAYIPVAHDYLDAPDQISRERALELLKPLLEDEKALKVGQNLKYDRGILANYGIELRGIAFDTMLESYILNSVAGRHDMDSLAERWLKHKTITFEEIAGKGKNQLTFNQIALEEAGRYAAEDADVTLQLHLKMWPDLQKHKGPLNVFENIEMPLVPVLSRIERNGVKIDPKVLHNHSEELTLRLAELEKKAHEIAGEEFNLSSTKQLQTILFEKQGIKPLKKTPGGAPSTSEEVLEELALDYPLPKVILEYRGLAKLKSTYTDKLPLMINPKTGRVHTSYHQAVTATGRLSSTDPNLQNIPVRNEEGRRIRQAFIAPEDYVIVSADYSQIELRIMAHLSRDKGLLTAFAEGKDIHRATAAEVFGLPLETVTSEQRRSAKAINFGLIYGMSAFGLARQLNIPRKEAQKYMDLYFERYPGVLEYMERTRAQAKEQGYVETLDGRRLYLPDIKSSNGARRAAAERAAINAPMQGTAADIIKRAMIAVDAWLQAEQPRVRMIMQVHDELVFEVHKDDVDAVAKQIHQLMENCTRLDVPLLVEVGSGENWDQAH

T1 sequence (Q56366 whole entry D141A/E143A/Y409V/A485L, form open): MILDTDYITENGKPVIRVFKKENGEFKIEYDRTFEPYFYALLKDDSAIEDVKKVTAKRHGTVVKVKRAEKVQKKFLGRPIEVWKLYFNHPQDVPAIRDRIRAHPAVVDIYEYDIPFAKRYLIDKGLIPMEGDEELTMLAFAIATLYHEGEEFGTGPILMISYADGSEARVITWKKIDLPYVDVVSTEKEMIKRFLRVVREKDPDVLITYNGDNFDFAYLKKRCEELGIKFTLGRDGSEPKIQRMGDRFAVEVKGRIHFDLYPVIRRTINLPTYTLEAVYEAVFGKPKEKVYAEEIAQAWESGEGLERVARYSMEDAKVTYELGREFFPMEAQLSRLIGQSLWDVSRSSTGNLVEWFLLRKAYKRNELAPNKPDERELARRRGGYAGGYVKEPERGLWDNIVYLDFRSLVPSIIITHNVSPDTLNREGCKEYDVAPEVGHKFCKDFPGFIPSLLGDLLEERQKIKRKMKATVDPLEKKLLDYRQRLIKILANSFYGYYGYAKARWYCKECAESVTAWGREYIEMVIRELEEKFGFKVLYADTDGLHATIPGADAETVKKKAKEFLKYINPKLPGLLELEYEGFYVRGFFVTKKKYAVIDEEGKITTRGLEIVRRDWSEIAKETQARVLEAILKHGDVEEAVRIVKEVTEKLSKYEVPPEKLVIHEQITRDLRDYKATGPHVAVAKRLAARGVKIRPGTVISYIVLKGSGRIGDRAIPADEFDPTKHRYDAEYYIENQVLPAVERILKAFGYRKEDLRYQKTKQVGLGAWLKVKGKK

## [N-]=[N+]=NCCCCCC(=O)NCC#Cc1cn([C@H]2C[C@H](O)[C@@H](COP(=O)(O)OP(=O)(O)OP(=O)(O)O)O2)c(=O)[nH]c1=O [AHP dUTP]
[1]
  primer extension, denaturing PAGE and mass spectrometry: all four polymerases successfully incorporate AHP dUTP in the presence of templates T1 and T2
[2]
  primer extension, denaturing PAGE and mass spectrometry: all four polymerases successfully incorporate AHP dUTP in the presence of templates T1 and T2
